The test system of one assay is H3K4me3 mark. Kind of assay: Western blot detection of H3K4me3 in HBV-infected PHHs. Format: cell-based, human. The following applies: for IC50: Homo sapiens; for chromatin H3K4Me3 mark: PHH from three different donors. The procedure: One million primary human hepatocytes (PHH) cells from three different donors were plated in 6 well collagen coated tissue culture plates in 2.5 ml Plating Media containing William's Medium E supplemented with 1% Penicillin/Streptomycin, 4 μg/mL human recombinant insulin, 2 mM glutamax, 15 mM Hepes, 1 μM dexamethasone and 5% fetal bovine serum (Life Technologies, Cat#A12176-01 Life Technologies, Chicago, Ill.) and incubated for 4-hours at 37° C. Following this incubation the media was changed to Maintenance Media (Cat#CM4000-A15564 Life Technologies, Chicago, Ill.) containing William's Medium E supplemented with 0.5% Penicillin/Streptomycin, 6.25 μg/mL human recombinant insulin, 6.25 μg/mL human transferrin, 6.25 ng/mL selenous acid, 1.25 mg/mL bovine serum albumin, 5.35 μg/mL linoleic acid, 2 mM glutamax, 15 mM Hepes, 0.1 μM dexamethasone, 2% fetal bovine serum, and 2% DMSO (Cat#D2650 Sigma, St. Louis, Mo.). The next day, cells were infected with approximately 500 genome equivalents of HBV clinical isolates 21P (GTA) or AD38 (GTD) per cell in Maintenance Media supplemented with 4% PEG 8000. Small molecule inhibitors targeting KDMs were serially diluted in Maintenance Media and added to cells at 3 days post infection (p.i.). Media with compounds was replenished every 2-3 days. Cells were harvested on day 14 p.i. by scraping the monolayer into ice-cold PBS supplemented with 5 mM Sodium Butyrate and concentrated by centrifugation at 1000×g for 5 minutes at 4° C. The cell pellets were washed twice by re-suspension in PBS and concentrated by centrifugation. The cells were lysed by suspension in Triton Extraction Buffer (TEB: PBS containing 0.5% Triton X 100 (v/v), 2 mM phenylmethylsulfonyl fluoride (PMSF), 0.02% (w/v) NaN3) at a cell density of 10^7 cells per ml and incubated on ice for 10 minutes with gentle stirring. Following centrifugation at 500 g for 10 minutes at 4° C., the supernatants were removed and the pellets were washed in 5×10^7 cells per ml TEB buffer and centrifuged as before. The pellets were re-suspended in 0.2N HCl at a cell density of 4×10^7 cells per ml and the histones were acid extracted overnight at 4° C. Samples were centrifuged at 500 g for 10 minutes at 4° C., the supematants were removed and protein content was determined using the Bradford assay. Histones were separated on a 4-20% gradient SDS gel (Mini protean TGX precast gels from BioRad), and blotted to a Hybond C-extra nitrocellulose membrane (Amersham Biosciences, RPN303E). H3K4me3 and total H3 were detected with a mixture of 1° antibodies (Cat#05-745R Millipore and Cat#14269S Cell Signaling) diluted 1:1000 in 5% skimmed milk powder in PBS containing 0.1% Tween. The western blot was washed 3 times in PBS containing 0.1% tween and incubated with 2° antibodies (Donkey anti-Mouse IRDye at 680LT Cat#926-68022 Licor Odyssey; Donkey anti-Rabbit IRDye at 800CW Cat#96-32213; Licor Odyssey) diluted 1:10000 in 5% skimmed milk powder in PBS containing 0.1% tween 20 for 1 h. Detection of infrared fluorescence was performed on Infrared Fluorescence Imaging System LI-COR. Concentration dependence of H3K4me3/H3 signal was used to calculate IC50 value for induction of H3K4 trimethylation.
(Immunoblotting shows a protein as a band on a membrane.)

Another assay has as its system HBV. Kind of assay: Effect of the withdrawal of KDM inhibitors on HBV rebound (HBsAg, HBeAg) in PHH. The following applies: for suppression of viral transcription after withdrawal: up to another 14 days after withdrawal; for HBeAg / HBsAg: PHH donor 8181, virus P21, compound removed after two weeks; for rebound of HBsAg or HBeAg secretion into media after compound withdrawal: PHH donor 8181, 21p virus, 14 days treatment, then 14 days without compound. Format: cell-based, Hepatitis B Virus. As to the method:
PHH from donor 8181 infected with 21p virus was treated with serially diluted Examples 8 or 7 for 14 days. Afterwards the compound was removed and cell cultures were replenished regularly with fresh medium but without compound for another 14 days. The levels of HBsAg and HBeAg secretion were measured during the course of the experiment to monitor the effects of compound on virus replication. No rebound of HBsAg or HBeAg secretion into media was observed after the compound withdrawal.
PHH from donor 8181 were infected with patient viruses P21 for three days before serially diluted Example 8 was added to the cells. After two weeks of the treatment the compound was removed and cells were followed for another 14 days. Activity of the compound was monitored during the course of the experiment using HBsAg and HBeAg readout. The medium with/without compound was replenished every 3-4 days. Day 0—compound was added to the infected cells.
PHH donor 8181 was infected with patient viruses P21 for three days before serially diluted Example 7 was added to the cells. After two weeks of the treatment the compound was removed and cells were followed for another 14 days. Activity of the compound was monitored during the course of the experiment using HBsAg and HBeAg readout. The medium with/without compound was replenished every 3-4 days. Day 0—compound was added to the infected cells.

Where [1] appears, read: read-out: IC50 (concentration causing a 50% increase in the H3K4me3 mark), Virus 21P (GTA), PHH 4239.
Where [2] appears, read: read-out: IC50 (concentration causing a 50% increase in the H3K4me3 mark), Virus 21P (GTA), PHH 8130.
Setting [3] is: read-out: IC50 (concentration causing a 50% increase in the H3K4me3 mark), Virus 21P (GTA), PHH 8181.
Setting [4] is: read-out: IC50 (concentration causing a 50% increase in the H3K4me3 mark), Virus AD38 (GTD), PHH 4239.
Where [5] appears, read: read-out: IC50 (concentration causing a 50% increase in the H3K4me3 mark), Virus AD38 (GTD), PHH 8130.
[6] abbreviates: read-out: IC50 (concentration causing a 50% increase in the H3K4me3 mark), Virus AD38 (GTD), PHH 8181.

Read-outs that look alike come from different tables or passages of the source.

For the compound `CCN(CCN(C)C)C(=O)CNCc1cc(C(=O)O)ccn1` [Example 9], the IC50 with H3K4me3 mark (setting [1]) stood at 60 nM; with H3K4me3 mark (setting [2]) it was 130 nM; in the assay with H3K4me3 mark (setting [3]), 100 nM; with H3K4me3 mark (setting [4]), 10 nM; in the assay on H3K4me3 mark (setting [5]), 130 nM; in the assay on H3K4me3 mark (setting [6]), 130 nM. Moreover, in the assay on H3K4me3 mark, the “chromatin H3K4Me3 mark” value was “increase in the chromatin H3K4Me3 mark in a dose-dependent manner”.

In the case of `Nc1c(C(=O)O)ccnc1C(=O)O` [Example 7, reference compound], the “suppression of viral transcription after withdrawal” value in the assay on HBV (2 μM) is listed as “prolonged suppression of viral transcription”. Besides, the HBeAg was 0 ng/mL in the assay on HBV (2000 nM, Day 0); 9.2 ng/mL in the assay with HBV (2000 nM, Day 5); 25.1 ng/mL with HBV (2000 nM, Day 10); 13.7 ng/mL in the assay on HBV (2000 nM, Day 14); 7.0 ng/mL in the assay with HBV (2000 nM, Day 19); 5.3 ng/mL in the assay on HBV (2000 nM, Day 24). In addition, the HBeAg with HBV (2000 nM, Day 28) was 5.4 ng/mL. Besides, the HBsAg with HBV (2000 nM, Day 0) is on record as 0 ng/mL; in the assay with HBV (2000 nM, Day 5) it was 20.6 ng/mL; in the assay with HBV (2000 nM, Day 10), 149.2 ng/mL; in the assay on HBV (2000 nM, Day 14) it was 68.6 ng/mL; in the assay on HBV (2000 nM, Day 19), 26.8 ng/mL; in the assay with HBV (2000 nM, Day 24), 11.7 ng/mL. Moreover, the HBsAg in the assay with HBV (2000 nM, Day 28) amounted to 19.1 ng/mL. In addition, in the assay on HBV, the “rebound of HBsAg or HBeAg secretion into media after compound withdrawal” value is listed as “No rebound”.

Regarding `CCOC(=O)c1ccnc(CNCC(=O)N(CC)CCN(C)C)c1` [Example 8], the IC50 amounted to 30 nM in the assay on H3K4me3 mark (setting [1]); 1 nM with H3K4me3 mark (setting [2]); 70 nM with H3K4me3 mark (setting [3]); 30 nM in the assay on H3K4me3 mark (setting [4]); 3 nM with H3K4me3 mark (setting [5]); 50 nM with H3K4me3 mark (setting [6]). For the same compound, in the assay on H3K4me3 mark, the “chromatin H3K4Me3 mark” value is on record as “increase in the chromatin H3K4Me3 mark in a dose-dependent manner”. Also, the HBeAg in the assay on HBV (20 nM, Day 0) is given as 0 ng/mL; in the assay with HBV (20 nM, Day 5), 5.3 ng/mL; in the assay on HBV (20 nM, Day 10), 31 ng/mL; with HBV (20 nM, Day 14) it was 13 ng/mL; in the assay with HBV (20 nM, Day 19), 3 ng/mL; in the assay on HBV (20 nM, Day 24), 2.3 ng/mL. The compound also registered an HBeAg in the assay on HBV (20 nM, Day 28) of 1.9 ng/mL. Moreover, the HBsAg worked out at 0 ng/mL with HBV (20 nM, Day 0); 13.8 ng/mL with HBV (20 nM, Day 5); 147 ng/mL with HBV (20 nM, Day 10); 30 ng/mL with HBV (20 nM, Day 14); 9 ng/mL in the assay on HBV (20 nM, Day 19); 4.4 ng/mL in the assay with HBV (20 nM, Day 24). Further, the HBsAg in the assay with HBV (20 nM, Day 28) came to 5.26 ng/mL. The “suppression of viral transcription after withdrawal” value in the assay on HBV (0.08 μM) is reported as “prolonged suppression of viral transcription”. Also, in the assay with HBV, the “rebound of HBsAg or HBeAg secretion into media after compound withdrawal” value is reported as “No rebound”.

Values taken from patent publication US20160303095A1, “METHODS OF TREATING HEPATITIS B VIRUS” (Gilead Sciences, Inc., priority 2015, published 2016).
